Consider ten sequences from the supplement of paper PMC5844555.

What all share (assay): 3' UTR reporter interaction score (median-centred robust z-score of log2 firefly/Renilla activity); higher = less repression of the 3' UTR reporter
Conditions in all cases: HEK293T; 48 h

One data set deals with BRCA2. The method, boiled down: (§1)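 In at least two independent screens, HEK293T cells in 96-well plates (10,000/well) were co-transfected with DharmaFECT Duo using 100 ng firefly luc2P reporter with the gene's 3' UTR, 20 ng Renilla pRL-TK control and 2.5 pmol miRNA mimic, and dual-luciferase activities were read at 48 h. The interaction score, averaged across screens, is the per-plate robust z-score (median, median absolute deviation) of the log firefly/Renilla ratio, median-centred per miRNA, with more negative indicating interaction.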

A further data set concerns EZH2. A digest of the protocol:
as §1

A further data set concerns FBXW7. The method, boiled down:
as §1

The test system of the next data set is HRAS. The method, boiled down:
as §1

Another data set relates to MYB. The method, boiled down: as §1
The test system of a further data set is MYCN. The method, boiled down:
as §1

A further data set relates to MYC. A digest of the protocol: as §1
In another data set the test system is MYT1L. The method, boiled down:
as §1

A further data set concerns NOTCH1. The method, boiled down: as §1
The test system of another data set is PHF6. A digest of the protocol:
as §1

The subject of a further data set is PHOX2B. The method, boiled down:
as §1

A further data set relates to RB1. A digest of the protocol:
as §1

For another data set, the system named is TP53. The method, boiled down: as §1
In a further data set the test system is ZEB2. The method, boiled down:
as §1

On to AGGCAGUGUAUUGUUAGCUGGC, for which the “3' UTR reporter interaction score” value in the data set on BRCA2 is 1.59; in the data set on EZH2 it was -0.179; in the data set on FBXW7, 0.842; in the data set with HRAS, 0.697; with MYB, -4.72; in the data set with MYCN, -5.92. Also, the “3' UTR reporter interaction score” value was -2.42 in the data set with MYC; 0.156 with MYT1L; -4.34 with NOTCH1; -4.67 in the data set on PHF6; 0.369 in the data set on PHOX2B; -1.56 with RB1. Besides, the “3' UTR reporter interaction score” value in the data set with TP53 stood at 1.19; in the data set with ZEB2, 0.15.

Take AGGCGGGGCGCCGCGGGACCGC: the “3' UTR reporter interaction score” value in the data set on BRCA2 was -0.123; in the data set with EZH2, -1.53; in the data set with FBXW7, -0.475; in the data set on HRAS it was -0.439; with MYB it was -0.412; with MYCN, -0.386. For the same sequence, the “3' UTR reporter interaction score” value with MYC is -0.234; with MYT1L it was -0.425; in the data set on NOTCH1, 0.236; with PHF6, 1.42; in the data set with PHOX2B it was -0.317; in the data set with RB1, 0.467. For the same sequence, the “3' UTR reporter interaction score” value is -0.353 in the data set with TP53 and 0.258 in the data set with ZEB2.

AGGCUGCGGAAUUCAGGAC: the “3' UTR reporter interaction score” value in the data set on BRCA2 was -1.7; with EZH2 it was -1.27; in the data set with FBXW7, 0.871; in the data set on HRAS, -1.18; in the data set with MYB it was 0.132; in the data set with MYCN, 0.119. Besides, the “3' UTR reporter interaction score” value is -0.912 in the data set with MYC; 1.31 in the data set with MYT1L; 0.93 in the data set on NOTCH1; 1.89 with PHF6; -0.147 in the data set on PHOX2B; 0.76 with RB1. The “3' UTR reporter interaction score” value in the data set on TP53 is -1.78; in the data set on ZEB2, 2.21.

With AGGGAUCGCGGGCGGGUGGCGGCCU, the “3' UTR reporter interaction score” value is 0.916 in the data set on BRCA2; -0.298 in the data set on EZH2; -0.971 with FBXW7; -0.484 in the data set with HRAS; 0.376 in the data set with MYB; -0.927 in the data set with MYCN. Also, the “3' UTR reporter interaction score” value in the data set with MYC is -0.321; in the data set on MYT1L it was -0.194; in the data set on NOTCH1 it was 0.433; in the data set with PHF6 it was 2.46; in the data set on PHOX2B it was -1.25; in the data set with RB1, -0.0484. Also, the entries for the “3' UTR reporter interaction score” value with TP53 and in the data set with ZEB2 were 0.628 and -0.0578, respectively.

Turning to AGGGCCCCCCCUCAAUCCUGU, the “3' UTR reporter interaction score” value in the data set with BRCA2 was 0.425; in the data set on EZH2, 0.205; in the data set on FBXW7 it was 0.757; in the data set with HRAS, -0.753; with MYB, 0.144; in the data set with MYCN, -0.0892. Moreover, the “3' UTR reporter interaction score” value in the data set with MYC is -0.761; in the data set with MYT1L, 0.617; in the data set with NOTCH1, -0.584; with PHF6 it was 0.378; with PHOX2B, 0.177; with RB1, 1.06. The “3' UTR reporter interaction score” value was -0.172 in the data set with TP53 and 1.65 with ZEB2.

For the sequence AGGGGGAAAGUUCUAUAGUCCU, the “3' UTR reporter interaction score” value with BRCA2 was -1.55; in the data set on EZH2 it was -1.49; with FBXW7 it was 0.691; with HRAS it was 0.225; with MYB, 1.55; with MYCN, 0.426. Besides, the “3' UTR reporter interaction score” value in the data set on MYC is -1.56; with MYT1L, -0.154; in the data set with NOTCH1, -1.57; in the data set with PHF6, 1.82; in the data set on PHOX2B, 1.33; in the data set with RB1, 0.755. Further, the figures for the “3' UTR reporter interaction score” value with TP53 and in the data set with ZEB2 were -0.601 and 2.84, respectively.

As to AGGGGUGGUGUUGGGACAGCUCCGU, the “3' UTR reporter interaction score” value was -0.768 in the data set with BRCA2; 0.203 in the data set with EZH2; 0.925 in the data set on FBXW7; -1.12 with HRAS; -0.179 with MYB; 0.408 in the data set on MYCN. The “3' UTR reporter interaction score” value with MYC is -0.499; in the data set with MYT1L, -0.319; with NOTCH1, -4.27; with PHF6, -0.137; in the data set with PHOX2B, -0.841; with RB1 it was 0.429. Further, the results for the “3' UTR reporter interaction score” value in the data set on TP53 and in the data set on ZEB2 were 0.0145 and 0.212, respectively.

As for AGGGUAAGCUGAACCUCUGAU, the “3' UTR reporter interaction score” value with BRCA2 was 0.0158; with EZH2, -0.149; in the data set with FBXW7, 2.4; with HRAS, -0.74; in the data set with MYB, 0.366; in the data set on MYCN, 1.35. In addition, the “3' UTR reporter interaction score” value is -0.643 in the data set on MYC; 0.432 in the data set on MYT1L; -0.542 in the data set with NOTCH1; -0.384 in the data set on PHF6; 1.64 in the data set with PHOX2B; -1.03 in the data set on RB1. Moreover, the results for the “3' UTR reporter interaction score” value in the data set with TP53 and in the data set with ZEB2 were 0.182 and -0.308, respectively.

For the sequence AGGGUGUUUCUCUCAUCUCU, the “3' UTR reporter interaction score” value with BRCA2 was -0.403; with EZH2 it was -0.619; in the data set with FBXW7, -0.794; with HRAS it was 0.396; in the data set with MYB it was 1.44; in the data set on MYCN, 1.22. Moreover, the “3' UTR reporter interaction score” value is 0.84 in the data set with MYC; -2.32 in the data set with MYT1L; -1.24 in the data set with NOTCH1; 1.32 in the data set with PHF6; 2.27 in the data set with PHOX2B; -0.774 in the data set with RB1. Further, the “3' UTR reporter interaction score” value in the data set on TP53 is 0.571; in the data set with ZEB2 it was -0.283.

With AGGUUACCCGAGCAACUUUGCA, the “3' UTR reporter interaction score” value in the data set with BRCA2 was -1.98; with EZH2 it was -1.68; in the data set on FBXW7, -1.16; with HRAS, -1.62; in the data set with MYB, 1.71; in the data set with MYCN, 0.0957. For the same sequence, the “3' UTR reporter interaction score” value is -0.29 in the data set on MYC; 2.75 with MYT1L; 0.652 with NOTCH1; 0.436 in the data set with PHF6; 2.07 in the data set with PHOX2B; 2.97 with RB1. Further, the “3' UTR reporter interaction score” value was -1.44 in the data set with TP53 and 0.562 with ZEB2.
